# Laboratory results: BindingDB's records for doi:10.1021/jm00381a005 (1985)
# Experiment: Inhibitory activity against thromboxane B2 formation (TXA2 synthase) by incubating prostaglandin H2 (PGH-2) with horse platelet microsomes
row,Structure (SMILES),IC50
1,O=C(O)C(CCC/C=C(/c1cccnc1)c1cccs1)c1ccccc1 (configuration not stated) [2-Phenyl-7-pyridin-3-yl-7-thiophen-2-yl-hept-6-enoic acid],50 nM
2,"CC(C)(CCCC/C=C(/c1ccccc1)c1cccnc1)C(=O)O [2,2-Dimethyl-8-phenyl-8-pyridin-3-yl-oct-7-enoic acid]",38 nM
3,C=C(C)C(CCC/C=C(\c1ccccc1)c1cccnc1)C(=O)O (configuration not stated) [2-Isopropenyl-7-phenyl-7-pyridin-3-yl-hept-6-enoic acid],28 nM
4,O=C(O)C(CCC/C=C(\c1cccnc1)c1cccs1)c1ccccc1 (configuration not stated) [2-Phenyl-7-pyridin-3-yl-7-thiophen-2-yl-hept-6-enoic acid],32 nM
5,O=C(O)C(CCC/C=C(\c1ccccc1)c1cccnc1)C1=CCCC1 (configuration not stated) [2-Cyclopent-1-enyl-7-phenyl-7-pyridin-3-yl-hept-6-enoic acid],60 nM
6,"CC(C)(CCC/C=C(/c1ccccc1)c1cccnc1)C(=O)O [2,2-Dimethyl-7-phenyl-7-pyridin-3-yl-hept-6-enoic acid]",30 nM
7,CC(C)(O)C(CCC/C=C(\c1ccccc1)c1cccnc1)C(=O)O (configuration not stated) [2-(1-Hydroxy-1-methyl-ethyl)-7-phenyl-7-pyridin-3-yl-hept-6-enoic acid],42 nM
8,CSC(CCC/C=C(\c1ccccc1)c1cccnc1)C(=O)O (configuration not stated) [2-Methylsulfanyl-7-phenyl-7-pyridin-3-yl-hept-6-enoic acid],30 nM
9,"CC(C)(CCC/C=C(\c1ccccc1)c1cccnc1)C(=O)O [2,2-Dimethyl-7-phenyl-7-pyridin-3-yl-hept-6-enoic acid]",21 nM
10,O=C(O)CCC/C=C(\c1ccccc1)c1cccnc1 [6-Phenyl-6-pyridin-3-yl-hex-5-enoic acid],30 nM
11,O=C(O)CCC/C=C(/c1ccccc1)c1cccnc1 [6-Phenyl-6-pyridin-3-yl-hex-5-enoic acid],280 nM
12,C=CCC(CCC/C=C(\c1ccccc1)c1cccnc1)C(=O)O (configuration not stated) [2-Allyl-7-phenyl-7-pyridin-3-yl-hept-6-enoic acid],50 nM
13,O=C(O)CCCC/C=C(\c1ccccc1)c1ccc[n+]([O-])c1 [7-(1-Oxy-pyridin-3-yl)-7-phenyl-hept-6-enoic acid],> 10000 nM
14,O=C(O)C(CCC/C=C(\c1ccccc1)c1cccnc1)C1(O)CCCC1 (configuration not stated) [2-(1-Hydroxy-cyclopentyl)-7-phenyl-7-pyridin-3-yl-hept-6-enoic acid],65 nM
15,CC(C)CSC(CCC/C=C(\c1ccccc1)c1cccnc1)C(=O)O (configuration not stated) [2-Isobutylsulfanyl-7-phenyl-7-pyridin-3-yl-hept-6-enoic acid],110 nM
16,COCC(CCC/C=C(\c1ccccc1)c1cccnc1)C(=O)O (configuration not stated) [2-Methoxymethyl-7-phenyl-7-pyridin-3-yl-hept-6-enoic acid],41 nM
17,"CC(C)(CCCC/C=C(\c1ccccc1)c1cccnc1)C(=O)O [2,2-Dimethyl-8-phenyl-8-pyridin-3-yl-oct-7-enoic acid]",45 nM

# Now from value to compound:
row,IC50,Structure (SMILES)
1,> 100000 nM,O=C(O)CCCC/C=C(/c1ccccc1)c1ccccn1 [7-Phenyl-7-pyridin-2-yl-hept-6-enoic acid]
2,80 nM,COc1ccc(/C(=C/CCCCC(=O)O)c2cccnc2)cc1 [7-(4-Methoxy-phenyl)-7-pyridin-3-yl-hept-6-enoic acid]
3,54 nM,O=C(O)CCCC/C=C(/c1cccnc1)c1cccs1 [(Z)-7-Pyridin-3-yl-7-thiophen-2-yl-hept-6-enoic acid]
4,250 nM,O=C(O)CCCC/C=C\c1cccnc1 [7-Pyridin-3-yl-hept-6-enoic acid]
5,71 nM,C/C(=C/CCCCC(=O)O)c1cccnc1 [7-Pyridin-3-yl-oct-6-enoic acid]
6,100 nM,COC(=O)CCCC/C=C(\c1ccccc1)c1cccnc1 [7-Phenyl-7-pyridin-3-yl-hept-6-enoic acid methyl ester]
7,20 nM,O=C(O)CCCC/C=C(\c1cccnc1)c1cccs1 [7-Pyridin-3-yl-7-thiophen-2-yl-hept-6-enoic acid]
8,31 nM,O=C(O)CCCC/C=C(\c1cccnc1)c1ccsc1 [7-Pyridin-3-yl-7-thiophen-3-yl-hept-6-enoic acid]
9,82 nM,O=C(O)CCCC/C=C(/c1ccc(Br)cc1)c1cccnc1 [7-(4-Bromo-phenyl)-7-pyridin-3-yl-hept-6-enoic acid]
10,600 nM,CCOC(=O)CCCC/C=C(\c1ccccc1)c1cccnc1 [7-Phenyl-7-pyridin-3-yl-hept-6-enoic acid ethyl ester]
11,210 nM,C/C(=C\CCCCC(=O)O)c1cccnc1 [(Z)-7-Pyridin-3-yl-oct-6-enoic acid]
12,180 nM,O=C(O)CCCC/C=C(\c1cccnc1)c1cccc(Br)c1 [7-(3-Bromo-phenyl)-7-pyridin-3-yl-hept-6-enoic acid]
13,62 nM,O=C(O)CCCC/C=C(/c1cccnc1)c1ccsc1 [(Z)-7-Pyridin-3-yl-7-thiophen-3-yl-hept-6-enoic acid]
14,83 nM,O=C(O)CCCC/C=C(/c1ccc(F)cc1)c1cccnc1 [7-(4-Fluoro-phenyl)-7-pyridin-3-yl-hept-6-enoic acid]
15,130 nM,O=C(O)CCCC/C=C(\c1cccnc1)c1ccccc1Br [7-(2-Bromo-phenyl)-7-pyridin-3-yl-hept-6-enoic acid]
16,29 nM,Cc1ccsc1/C(=C/CCCCC(=O)O)c1cccnc1 [7-(3-Methyl-thiophen-2-yl)-7-pyridin-3-yl-hept-6-enoic acid]
17,73 nM,O=C(O)CCCC/C=C(\c1cccnc1)c1cccc([N+](=O)[O-])c1 [7-(3-Nitro-phenyl)-7-pyridin-3-yl-hept-6-enoic acid]
18,55 nM,O=C(O)CCCC/C=C(\c1cccnc1)c1cccc(F)c1 [7-(3-Fluoro-phenyl)-7-pyridin-3-yl-hept-6-enoic acid]
19,520 nM,O=C(O)CCCCCCCCC/C=C(/c1ccccc1)c1cccnc1 [12-Phenyl-12-pyridin-3-yl-dodec-11-enoic acid]
20,400 nM,NC(=O)CCCC/C=C(\c1ccccc1)c1cccnc1 [7-Phenyl-7-pyridin-3-yl-hept-6-enoic acid amide]
21,2700 nM,O=C(O)CCCCCC(c1ccccc1)c1cccnc1 (configuration not stated) [7-Phenyl-7-pyridin-3-yl-heptanoic acid]
22,33 nM,O=C(O)C(CCC/C=C(\c1ccccc1)c1cccnc1)Sc1ccccc1 (configuration not stated) [7-Phenyl-2-phenylsulfanyl-7-pyridin-3-yl-hept-6-enoic acid]
23,65 nM,O=C(O)CCCC/C=C(/CCCc1ccccc1)c1cccnc1 [10-Phenyl-7-pyridin-3-yl-dec-6-enoic acid]
24,55 nM,O=C(O)CCCCCCCCC/C=C(\c1ccccc1)c1cccnc1 [12-Phenyl-12-pyridin-3-yl-dodec-11-enoic acid]
25,85 nM,Cc1ccc(/C(=C/CCCCC(=O)O)c2cccnc2)cc1 [7-Pyridin-3-yl-7-p-tolyl-hept-6-enoic acid]
